# Assay results from US11485728B2, “Small molecules for the treatment of autoimmune diseases and cancer” (Athos Therapeutics, Inc., priority 2020, dated 2022).
# What was measured:
# [1] = test system: gut microbiome; experiment: Microbiome (shotgun metagenomic sequencing) of DSS-induced colitis mice; type: in vivo; details: for gut microbiome composition (in words): induced colitis conditions
# [2] = test system: IL17; experiment: IL17 protein levels in human CD4 T cells (ELISA); type: cell-based
# Protocol: Naïve human CD4 T cells were cultured in DMEM supplemented with 10% heat-inactivated FBS, 2 mM glutamine, 100 U/ml penicillin, 100 μg/ml streptomycin and 25 mM Hepes. Human CD4 T cells were treated with anti-CD3 and anti-CD28 (100 ng/ml) together with small molecule compounds (500 nM) for 5 days. FoxP3 and CD4 positive cells were stained and imaged in a BD LSRII flow cytometer. The gated area represents the percentage CD4^highFoxP3^high immune cell population. Furthermore, the same small molecule compounds were evaluated for their effects on IL17 protein levels in human CD4 T cells by using an ELISA assay (R&D systems, cat no. D1700).
# [3] = test system: C57BL/6 mice with TNBS colitis; experiment: TNBS colitis in C57BL/6 mice; type: in vivo; parameters: TNBS Efficacy / Clinical Score / Histological Score / Colon Length: key to the marks not given beside the values
# Protocol: (§1) C57BL/6 mice (20-22 grams) were fed ad lib and assigned to 4 different groups (n=8/group). After a 72 hr acclimation period the test group groups received 25 mg/kg of test compound PO (gavage) in vehicle daily. A control group received vehicle alone. After 24 hrs, mice were weighed and TNBS was injected intra-colonically using 5 cm of polyethylene (¼ inch) tubing. Mice were then treated with the test compounds and weighed daily for 4 days. Mice were sacrificed on day 4 and clinical score was assessed. Intestinal tissue for and blood were also collected. Tissues were either flash frozen and kept in −80° C. for RNA and protein isolation or placed in 10% formalin solution for future histological analysis. Blood was spun at 5K rpm for 5 min and serum was collected and kept at −20° C. for multiplex cytokine analysis.
# [4] = test system: colon tissue gene expression; experiment: Colon tissue gene expression (RNA-Seq) in TNBS-induced colitis mice; type: in vivo; details: for expression of genes related to inflammatory response: vs untreated
# Protocol: as §1, with “Method: TNBS colitis: C57BL/6” for “C57BL/6”
# RNA Sequencing: RNA was extracted from mouse colon tissue at Athos Therapeutics and was sent at Zymo Research or the Technology Center for Genomics & Bioinformatics at UCLA for sequencing and partial bioinformatics analysis.
# Libraries for RNA-Seq were prepared with KAPA Stranded mRNA-Seq Kit. The workflow consists of mRNA enrichment and fragmentation, first strand cDNA synthesis using random priming, followed by second strand synthesis converting cDNA:RNA hybrid to double-stranded cDNA (dscDNA), and incorporates dUTP into the second cDNA strand. cDNA generation is followed by end repair to generate blunt ends, A-tailing, adaptor ligation, and PCR amplification. Different adaptors were used for multiplexing samples in one lane. Sequencing was performed on NovaSeq6000 (SP) for a PE 2×150 run. Data quality checking was done on Illumina SAV. Data de-multiplexing was performed with Illumina Bcl2fastq v 2.19.1.403 software. The reads were mapped by STAR 2.27a and read counts per gene were quantified using the mouse Ensembl Musmusculus.GRCm38.97 GTF file. In Partek Flow (Partek® Flow® software, v7.0 Copyright©. 2019 Partek Inc., St. Louis, Mo., USA) read counts were normalized by CPM +1.0E-4.
# Gene differential expression analysis and downstream gene enrichment analysis was performed at Athos Therapeutics. The DESeq2 R package was used for differential expression analysis. DESeq2 FDR cutoff: 0.05, DESeq2 Log 2FC cutoff: 1 (FC cutoff: 2). Gene enrichment analysis was performed using the Enrichr) (https://maayanlab.cloud/Enrichr/enrich) and gprofiler (https://biit.cs.ut.ee/gprofiler/gost) platforms.
# [5] = in vitro; details: PAMPA, 5 hours at RT
# [6] = DSS colitis mice, 25 mg/kg PO daily, p<0.05
smiles,measurement,setting,value
"COc1cc2c(NC3CCOCC3)nc(N3CCC(F)(F)CC3)nc2cc1OCCCN1CCCC1 [Compound 2, 2-(4,4-difluoropiperidin-1-yl)-6-methoxy-7-(3-(pyrrolidin-1-yl)propoxy)-N-(tetrahydro-2H-pyran-4-yl)quinazolin-4-amine]",Bacteroidetes phylum abundance,[1]; [6],increase
same,Proteobacteria phylum abundance,[1]; [6],increase
same,gut microbiome composition (in words),[1],significantly altered the gut microbiome composition and shifted it towards eubiosis
same,IL17 protein levels,[2],do not have an effect
same,colitis associated damage in the intestine (in words),[3]; 25 mg/kg PO daily,strong inhibitor of colitis associated damage in the intestine
same,Clinical Score,"[3]; 25 mg/kg PO daily, day 4",++
same,Colon Length,"[3]; 25 mg/kg PO daily, day 4",++
same,Histological Score,"[3]; 25 mg/kg PO daily, day 4",++
same,TNBS Efficacy,"[3]; 25 mg/kg PO daily, day 4",++
same,histological scores (in words),[3]; vs vehicle treated controls,positive outcomes
same,expression of TNF,[4],significantly reduced expression
same,expression of infliximab marker genes,[4],significantly reduced expression
same,expression of pro-inflammatory cytokine and metalloproteinase pathway genes (22-gene signature),[4],significantly reduced expression
same,number of inflammatory response genes with significantly reduced expression,[4],> 85 genes
same,Log2FC 1l6,[4]; treated vs untreated,−4.82
same,Log2FC Ccl2,[4]; treated vs untreated,−2.71
same,Log2FC Ccl3,[4]; treated vs untreated,−7.36
same,Log2FC Ccl7,[4]; treated vs untreated,−2.73
same,Log2FC Ccl9,[4]; treated vs untreated,−1.15
same,Log2FC Csf3,[4]; treated vs untreated,−6.66
same,Log2FC Csf3r,[4]; treated vs untreated,−3.19
same,Log2FC Cxcl1,[4]; treated vs untreated,−6.03
same,Log2FC Cxcl2,[4]; treated vs untreated,−8.30
same,Log2FC Cxcl3,[4]; treated vs untreated,−10.19
same,Log2FC Cxcl5,[4]; treated vs untreated,−6.57
same,Log2FC Il1a,[4]; treated vs untreated,−6.05
same,Log2FC Il1b,[4]; treated vs untreated,−6.17
same,Log2FC Il11,[4]; treated vs untreated,−4.05
same,Log2FC Il13ra2,[4]; treated vs untreated,−2.38
same,Log2FC Mmp3,[4]; treated vs untreated,−4.47
same,Log2FC Osm,[4]; treated vs untreated,−4.67
same,Log2FC Osmr,[4]; treated vs untreated,−1.24
same,Log2FC Ptgs2,[4]; treated vs untreated,−3.18
same,Log2FC Stc1,[4]; treated vs untreated,−1.89
same,Log2FC Tnfrsf11b,[4]; treated vs untreated,−1.66
same,expression of genes related to inflammatory response,[4],significantly reduced expression levels
"COc1cc2c(NC3CCN(C(C)C)CC3)nc(N3CCC(F)(F)CC3)nc2cc1OCCCN1CCCC1 [Compound 400, 2-(4,4-difluoropiperidin-1-yl)-N-(1-isopropylpiperidin-4-yl)-6-methoxy-7-(3-(pyrrolidin-1-yl)propoxy)quinazolin-4-amine, reference compound]",Papp,"[5]; PAMPA permeability Classification, 20 μM donor",0.055 to 1.5 ×10⁻⁶ cm/s
same,Papp,"[5]; Permeability, Pe, 20 μM donor in PBS/MeOH 90:10",0.178 ×10⁻⁶ cm/s
same,IL17 protein levels,[2],significantly suppresses
same,expression of genes related to inflammatory response,[4],did not have any effect
"COc1cc2c(NC3CCS(=O)(=O)CC3)nc(N3CCC(F)(F)CC3)nc2cc1OCCCN1CCCC1 [Compound 1, 4-((2-(4,4-difluoropiperidin-1-yl)-6-methoxy-7-(3-(pyrrolidin-1-yl)propoxy)quinazolin-4-yl)amino)tetrahydro-2H-thiopyran 1,1-dioxide]",Bacteroidetes phylum abundance,[1]; [6],increase
same,Firmicutes phylum abundance,[1]; [6],significant decrease
same,Verrucomicrobia phylum abundance,[1]; [6],increase
same,gut microbiome composition (in words),[1],significantly altered the gut microbiome composition and shifted it towards eubiosis
